Reference: US11471456B2, “Formulations comprising heterocyclic protein kinase inhibitors” (Sumitomo Pharma Oncology, Inc., priority 2019, dated 2022)
≈ marks a conversion by molar mass, not a printed value. Like-named read-outs stand apart in the source and are kept apart here. Values belong to the compound of their own block, whether it stands above or below them.

Experiments:
[1] = DVS (hygroscopicity) of free base and salts; format: physicochemical
[2] = Oral bioavailability of the compound of structure (I) in rats with different excipients; format: in vivo; settings: for bioavailability: rat, in vivo, po
[3] = HPLC solubility in SGF, FaSSIF, FeSSIF at 37° C.; format: physicochemical; settings: thermodynamic from solid
Experimental: HPLC Method. The chromatographic conditions for HPLC are summarized below.
The samples were then centrifuged and filtered. Saturated solutions were diluted with MeOH:H2O=1:2 (v:v), and the concentrations were determined by HPLC. The final pH of the saturated solutions was tested.

[4] = Phase 1 first-in-human escalating dose study in patients with advanced solid tumors; format: in vivo
Experimental: The study is currently enrolling Cohort 3 at a dose level of 1080 mg qd.

Compound: CC(C)(O)C1CCC(Nc2ccc3ncc(-c4cccc(C(F)(F)F)c4)n3n2)CC1.Cl [Hydrochloric acid salt, 2-((1R,4R)-4-((3-(3-(trifluoromethyl)phenyl)imidazo[1,2-b]pyridazin-6-yl)amino)cyclohexyl)propan-2-ol hydrochloride]
DVS (weight gain, %) [1]: 2.83% | hygroscopicity by DVS compared with methanesulfonic acid salt [1]: much lower hygroscopicity

DVS (weight gain, %) [1]: 1.60% | hygroscopicity by DVS compared with methanesulfonic acid salt [1]: much lower hygroscopicity | Oral Bioavailability (% F) ([2]; Dry Powder (capsule), administered alone): poor bioavailability | bioavailability ([2]; Dry Powder (capsule), administered alone, read-out: Oral Bioavailability (% F)): 0% | bioavailability ([2]; excipient 10% EtOH/10% PEG300/20% HS15, read-out: Oral Bioavailability (% F)): 38% | bioavailability ([2]; excipient 10% EtOH/40% PG, read-out: Oral Bioavailability (% F)): 2% | bioavailability ([2]; excipient 10% PS-20, read-out: Oral Bioavailability (% F)): 39% | bioavailability ([2]; excipient 10% PS-20/50% PEG400, read-out: Oral Bioavailability (% F)): 15% | bioavailability ([2]; excipient Corn Oil, read-out: Oral Bioavailability (% F)): 0% | bioavailability ([2]; excipient HPβCD, read-out: Oral Bioavailability (% F)): 11% | solubility at 0.5 h ([3]; simulated gastric fluid, SGF): 1360 µg/mL (≈ 3250 µM) | solubility at 2 h ([3]; simulated gastric fluid, SGF): 1270 µg/mL (≈ 3030 µM) | solubility at 24 h ([3]; simulated gastric fluid, SGF): 903 µg/mL (≈ 2160 µM) | solubility at 0.5 h ([3]; FaSSIF): 10.4 µg/mL (≈ 24.9 µM) | solubility at 2 h ([3]; FaSSIF): 9.81 µg/mL (≈ 23.4 µM) | solubility at 24 h ([3]; FaSSIF): 7.91 µg/mL (≈ 18.9 µM) | solubility at 0.5 h ([3]; FeSSIF): 96.8 µg/mL (≈ 231 µM) | solubility at 24 h ([3]; FeSSIF): 91.5 µg/mL (≈ 219 µM)
Compound: CC(C)(O)[C@H]1CC[C@H](Nc2ccc3ncc(-c4cccc(C(F)(F)F)c4)n3n2)CC1 [compound of structure (I), 2-((1R,4R)-4-((3-(3-(trifluoromethyl)phenyl)imidazo[1,2-b]pyridazin-6-yl)amino)cyclohexyl)propan-2-ol]
changes in hematological parameters including platelets, WBC counts and hemoglobin ([4]; 480 mg qd and 720 mg qd cohorts (3 patients each), first cycle, preliminary data): no marked changes in hematological parameters | side effects, regardless of causality, occurring with a frequency equal to 2 or greater ([4]; 480 mg qd and 720 mg qd cohorts, preliminary data): diarrhea, nausea and vomiting | severity of the side effect events ([4]; all Grade 1, except one event that was Grade 2): mild in severity
